Patent publication US3972872A, “6-[α-(ω-Guanidinoalkanoylamido)acylamido]penicillanic acids” (Pfizer Inc., priority 1975, dated 1976)
≈ marks a conversion by molar mass, not a printed value. Where two headings read alike, the source gives them in different places.

Experiments:
Pseudo. aeruginosa 104 = assay: In vitro MIC, Pseudo. aeruginosa 104; format: cell-based, Pseudomonas aeruginosa; conditions: unit assumed
From the text: (§1) The in vitro spectra of a number of 6-[α-(ω-guanidinoalkanoylamido)acylamido]penicillanic acids of this invention against certain gram-negative bacteria are presented in Table I below. […] Th compounds of Table I have the formula

Serratia marcescens A001 = assay: In vitro MIC, Serratia marcescens A001; format: cell-based; conditions: unit assumed
From the text: as §1

Pseudo. aeruginosa 490 = assay: In vitro MIC, Pseudo. aeruginosa 490; format: cell-based, Pseudomonas aeruginosa; conditions: unit assumed
From the text: as §1

in vivo = conditions: dog, im, 25 mg/kg
P. aeruginosa = assay: PD50 versus acute systemic P. aeruginosa infection in mice; format: in vivo; conditions: mice; for ED50: Pseudomonas aeruginosa, 96 h, P. aeruginosa, read-out: PD50
From the text: (§2) Additionally, the compounds of this invention are active versus gram-positive and gram-negative bacteria in vivo via the parenteral route of administration in animals, including man. Their in vivo activity in animals, including man, by the oral route of administration is more limited as regards susceptible organisms. Nevertheless, oral in vivo activity against Escherichia coli and Staphylococcus aureus is a common property of many compounds of this invention. Table II below presents the comparative in vivo spectra of several compounds within the scope of this invention against D-α-aminobenzylpenicillin (Ampicillin).
(§3) The acute systemic infections in mice were produced by the intraperitoneal inoculation of standardized cultures suspended in 5% hog gastric mucin. Treatment with the drugs was initiated 0.5 hours after inoculation of the infecting organism. A second dose was administered 4 hours later. The PD50 values were calculated after a hold period of 4 days.

E. coli 266 = assay: In vitro MIC, E. coli 266, two-fold serial dilution; format: cell-based, Escherichia coli; conditions: unit assumed
From the text: as §1

S. aureus = assay: PD50 versus acute systemic S. aureus infection in mice; format: in vivo; conditions: for ED50: Staphylococcus aureus, 96 h, S. aureus, mice
From the text: as §2, §3

Pseudo. aeruginosa 173 = assay: In vitro MIC, Pseudo. aeruginosa 173; format: cell-based, Pseudomonas aeruginosa; conditions: unit assumed
From the text: as §1

E. coli = assay: PD50 versus acute systemic E. coli infection in mice; format: in vivo; conditions: for ED50: Escherichia coli, 96 h, E. coli, mice
From the text: as §2, §3

Proteus vulgaris A059 = assay: In vitro MIC, Proteus vulgaris A059; format: cell-based; conditions: unit assumed
From the text: as §1

Proteus mirabilis C015 = assay: In vitro MIC, Proteus mirabilis C015; format: cell-based; conditions: unit assumed
From the text: as §1

Escherichia coli 266 = assay: In vivo protection of mice versus Escherichia coli 266; conditions: Escherichia coli, 266, sc, 96 h; 50 mg./kg., mice, subcutaneous route; read-out: % Protection
From the text: as §2, §3

SMILES: CC1(C)S[C@@H]2[C@H](NC(=O)[C@H](NC(=O)NC(=N)N)c3ccccc3)C(=O)N2[C@H]1C(=O)O [B, 6-[D-2-phenyl-2-(3-guanylureido)acetamido]penicillanic acid]
- MIC (Pseudo. aeruginosa 104): 2.5 µg/mL (≈ 5.75 µM)
- MIC (Serratia marcescens A001): 6.25 µg/mL (≈ 14.4 µM)
- MIC (Pseudo. aeruginosa 490): 1.5 µg/mL (≈ 3.45 µM)
- concentration at 0.5 h (in vivo): 3500 ng/mL
- concentration at 1 h (in vivo): 3600 ng/mL
- concentration at 2 h (in vivo): 800 ng/mL
- ED50 (P. aeruginosa; oral): > 200 mg/kg
- ED50 (P. aeruginosa; sc, subcutaneous): 41 ± 13 mg/kg
- activity against Pseudomonas aeruginosa (in words) (P. aeruginosa; in vivo): active
- MIC (E. coli 266): 3.1 µg/mL (≈ 7.13 µM)
- ED50 (S. aureus; oral): > 100 mg/kg
- ED50 (S. aureus; sc, subcutaneous): 18 ± 9.8 mg/kg
- in vivo oral activity against S. aureus (in words) (S. aureus; oral): lacks oral activity
- MIC (Pseudo. aeruginosa 173): 1.5 µg/mL (≈ 3.45 µM)
- ED50 (E. coli; oral): > 200 mg/kg
- ED50 (E. coli; sc, subcutaneous): 15 ± 6.5 mg/kg
- in vivo oral activity against E. coli (in words) (E. coli; oral): lacks oral activity
- MIC (Proteus vulgaris A059): 1.56 µg/mL (≈ 3.59 µM)
- MIC (Proteus mirabilis C015): 0.78 µg/mL (≈ 1.8 µM)
- responders at 50 mg/kg (Escherichia coli 266): 100%
